Several values for one entry are separate records, joined by “and”; a condition that tells them apart may be missing. Equal values may be shown once. No end group written: not given here.
Experiments:
[1] = target: T1, Candida albicans pheromone GPCR CaSte2 (Candida albicans); test: cell-based or functional assay
T1 sequence: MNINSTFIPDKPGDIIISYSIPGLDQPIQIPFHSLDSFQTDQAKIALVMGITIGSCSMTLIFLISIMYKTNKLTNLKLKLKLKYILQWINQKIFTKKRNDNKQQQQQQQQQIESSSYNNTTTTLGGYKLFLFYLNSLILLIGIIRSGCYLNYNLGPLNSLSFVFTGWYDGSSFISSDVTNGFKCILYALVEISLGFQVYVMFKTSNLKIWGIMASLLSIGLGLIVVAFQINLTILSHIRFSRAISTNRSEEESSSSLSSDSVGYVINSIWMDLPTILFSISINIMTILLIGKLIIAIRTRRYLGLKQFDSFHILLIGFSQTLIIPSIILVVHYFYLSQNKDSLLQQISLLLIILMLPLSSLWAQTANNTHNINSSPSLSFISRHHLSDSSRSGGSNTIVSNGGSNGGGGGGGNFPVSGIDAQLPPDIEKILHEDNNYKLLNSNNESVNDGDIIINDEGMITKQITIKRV

CaSte2 = conditions: for Hill Slope: CaSte2 (yTC384), no protease, Hill function best-fit ± standard error
[2] = tested on: CaSte2 with protease CaBar1; conditions: CaSte2 + CaBar1 (yBB02); Hill function best-fit ± standard error
[3] = target: T2, Saccharomyces cerevisiae pheromone GPCR ScSte2 (Saccharomyces cerevisiae) (UniProt D6VTK4); test: cell-based or functional assay
T2 sequence: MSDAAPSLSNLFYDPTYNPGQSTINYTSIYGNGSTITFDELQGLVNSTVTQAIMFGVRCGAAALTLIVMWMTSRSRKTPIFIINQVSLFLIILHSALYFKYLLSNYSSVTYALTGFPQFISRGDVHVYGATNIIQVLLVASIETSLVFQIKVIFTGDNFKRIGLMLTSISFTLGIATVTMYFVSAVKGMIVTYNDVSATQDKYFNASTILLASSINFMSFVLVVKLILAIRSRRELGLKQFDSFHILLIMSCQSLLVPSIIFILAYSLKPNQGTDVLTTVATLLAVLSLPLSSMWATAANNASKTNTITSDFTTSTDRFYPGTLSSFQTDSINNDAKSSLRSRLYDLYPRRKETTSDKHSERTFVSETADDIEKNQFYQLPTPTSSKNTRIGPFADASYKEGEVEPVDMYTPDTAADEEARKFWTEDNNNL

ScSte2 = ScSte2 (Saccharomyces cerevisiae, UniProt D6VTK4); test: ScSte2 biosensor dose-response, ymTurquoise2 readout, no protease (incl. ScPep alanine scan, yTC391); format: cell-based; conditions: Hill function best-fit ± standard error
ScSte2, sequence (D6VTK4 whole entry): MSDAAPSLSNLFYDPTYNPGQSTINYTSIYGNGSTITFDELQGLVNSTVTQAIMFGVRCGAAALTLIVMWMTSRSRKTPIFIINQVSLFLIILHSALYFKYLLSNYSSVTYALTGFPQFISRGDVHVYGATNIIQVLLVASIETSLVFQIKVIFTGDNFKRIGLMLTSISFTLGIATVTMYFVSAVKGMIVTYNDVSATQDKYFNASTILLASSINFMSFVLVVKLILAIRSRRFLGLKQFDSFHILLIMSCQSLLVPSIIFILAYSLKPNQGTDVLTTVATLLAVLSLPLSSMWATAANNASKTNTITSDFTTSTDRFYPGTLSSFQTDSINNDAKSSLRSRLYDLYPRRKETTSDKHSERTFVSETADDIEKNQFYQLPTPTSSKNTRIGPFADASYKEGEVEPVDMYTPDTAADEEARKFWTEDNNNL

[4] = target: ScSte2 with protease ScBar1 (Saccharomyces cerevisiae, UniProt D6VTK4); format: cell-based
ScSte2 with protease ScBar1, sequence (D6VTK4 whole entry): as above

[5] = alanine scan, system without CaBar1 (yTC384)

Substance: CaPep2A13A (peptide)
- EC50, ymTurquoise2, strain with the protease CaBar1 [1]: 70 nM
- EC50, ymTurquoise2, strain without the protease [1]: 50 nM
- LogEC50 [1]: -7 log M and -6.5 log M
- Top [1]: 790 A.U. and 680 A.U.

Substance: GFRLTNFGAAEPG [9A10A]
- Hill Slope (CaSte2): 0.99 ± 0.04
- EC50 compared to the native CaPep (CaSte2; [5]): more than two orders of magnitude higher EC50
- Hill Slope [2]: 1.0 ± 0.1

Substance: CaPep5A (peptide)
- LogEC50 [1]: -5.2 log M and -4.9 log M
- Top [1]: 15 A.U. and 13 A.U.

Substance: Scα-Smt3 (α-factor fused to the N-terminus of full-length Smt3, 6x-His-tag at the opposite terminus) (from UniProt Q12306 2-98)
- EC50 (mCherry/OD600) [3]: 149 nM

Substance: GFRLTNFGYFAPG [CaPep11A]
- Hill Slope [2]: 1.5 ± 0.2

Substance: Smt3-Scα (α-factor fused to the C-terminus of full-length Smt3, 6x-His-tag at the opposite terminus) (from UniProt Q12306 1-98)
- EC50 (mCherry/OD600) [3]: 208 nM

Substance: GFRLTNFGYAEPG [CaPep10A]
- Hill Slope (CaSte2): 2.8 ± 0.5
- EC50 compared to the native CaPep (CaSte2; [5]): more than two orders of magnitude higher EC50
- Hill Slope [2]: 2.6 ± 0.13

Substance: AHWLQLKPGQPMY [ScPep1A]
- Hill Slope (ScSte2): 3.4 ± 0.8
- Bottom [4]: −3.1 ± 5.8 A.U.
- Hill Slope [4]: 0.76 ± 0.06
- LogEC50 [4]: −5.9 ± 0.1 M
- Top [4]: 350 ± 10 A.U.

Substance: C. albicans pheromone peptide (CaPep)
- EC50, lycopene readout, strains preincubated, +CaBar1 [1]: 4 µM
- EC50, ymTurquoise2, biosensor with CaBar1 (pRPL18B) [1]: 90 nM
- EC50, ymTurquoise2, biosensor without protease [1]: 7 nM
- LogEC50 [1]: -7.2 log M
- Top [1]: 460 A.U. and 420 A.U.

Substance: WHWLQLKPGAPMY [ScPep10A]
- Hill Slope (ScSte2): 5.3 ± 3.7
- Bottom [4]: 8.3 ± 1.6 A.U.
- Hill Slope [4]: 1.8 ± 0.1
- LogEC50 [4]: −5.2 ± 0.1 M
- Top [4]: 420 ± 10 A.U.

Substance: ScPep13A (peptide)
- Top [3]: 360 A.U. and 490 A.U.

Substance: ScPep5A (peptide)
- Top [3]: 380 A.U. and 340 A.U.

Substance: WHALQLKPGQPMY [ScPep3A]
- Hill Slope (ScSte2): 2.5 ± 0.1
- Bottom [4]: 6.4 ± 2.6 A.U.
- Hill Slope [4]: 0.74 ± 0.05
- LogEC50 [4]: −4.6 ± 0.1 M
- Top [4]: 370 ± 20 A.U.

Substance: GFRLANFGYFEPG [CaPep5A]
- Hill Slope (CaSte2): 2.7 ± 0.7
- response of CaSte2 (CaSte2; [5]): practically non-responsive

Substance: CaPep1A (peptide)
- Top [1]: 460 A.U. and 410 A.U.

Substance: GFRATNFGYFEPG [CaPep4A]
- Hill Slope (CaSte2): 1.3 ± 0.1
- Hill Slope [2]: 2.4 ± 0.4

Substance: CaPep4A (peptide)
- LogEC50 [1]: -6.5 log M and -6.1 log M
- Top [1]: 460 A.U. and 410 A.U.

Substance: WHWLQLKPGQPMA [ScPep13A]
- Hill Slope (ScSte2): 8.2 ± 3.1
- Bottom [4]: 4.6 ± 2.5 A.U.
- Hill Slope [4]: 1.2 ± 0.1
- LogEC50 [4]: −5.1 ± 0.1 M
- Top [4]: 490 ± 10 A.U.

Substance: CaPep9A (peptide)
- Top [1]: 700 A.U. and 480 A.U.

Substance: ScPep11A (peptide)
- Top [3]: 410 A.U.

Substance: WHWLQAKPGQPMY [ScPep6A]
- Hill Slope (ScSte2): 5.6 ± 0.7
- Bottom [4]: 0.38 ± 5.71 A.U.
- Hill Slope [4]: 0.99 ± 0.10
- LogEC50 [4]: −5.5 ± 0.1 M
- Top [4]: 390 ± 10 A.U.

Substance: S. cerevisiae pheromone peptide (ScPep)
- EC50 (mCherry/OD600) [3]: 2 nM
- Top [3]: 380 A.U. and 390 A.U.

Substance: GFALTNFGYFEPG [CaPep3A]
- Hill Slope (CaSte2): 2.0 ± 0.1
- Hill Slope [2]: 0.74 ± 0.08

Substance: GFRLTNFGYFEAA [12A13A]
- Hill Slope (CaSte2): 2.8 ± 0.1
- EC50 compared to the native CaPep (CaSte2; [5]): more than two orders of magnitude higher EC50
- Hill Slope [2]: 1.8 ± 0.1

Substance: ScPep2A (peptide)
- Top [3]: 270 A.U. and 350 A.U.

Substance: GFRLTNFGYFEAG [12A]
- Hill Slope (CaSte2): 0.95 ± 0.04
- EC50 compared to the native CaPep (CaSte2; [5]): more than two orders of magnitude higher EC50
- Hill Slope [2]: 1.1 ± 0.1

Substance: CaPep8A (peptide)
- Top [1]: 640 A.U. and 460 A.U.

From US20240368664A1, “LIVE YEAST BIOSENSORS AND METHODS OF USE THEREOF” (priority 2021, published 2024)
